{"source": "patent US20260091030A1", "about": "“HIGH-DOSE NALOXONE FORMULATION” (SRI INTERNATIONAL, priority 2022, published 2026)", "key": {"[1]": {"test": "Initial pH stability of Naloxone hydrochloride in 10 mM buffers pH 3.0-10.6, 7 days (concentration, pH, Noroxymorphone by HPLC)", "format": "physicochemical", "protocol": "FIG. 3 is a graph that depicts the concentration of Naloxone in various buffers at t=0 and t=7. The t=7 represents samples stored at either 40° C. or 60° C. for up to 7 days. […] The 15 mg/ml was chosen for pH stability studies and a final formulation of Naloxone is planned to be at 10 mg/ml strength. The maximum possible solubility of drug substance at various buffers will be performed in a “pH solubility” study. […] Naloxone precipitated in solution maintained at pH 7.4-10.6. The glycine-sodium hydroxide buffer system fared slightly better, however not as well as the buffers that maintained pH at 3.0-6.5. It is likely that buffer strength higher than 10 mM is required for pH 7.0-11 buffer systems. […] Based on the pKa values, solubility of Naloxone is expected to be higher at lower pH conditions.\nFIG. 4 is a graph that depicts the change in pH of Naloxone in various buffers t=0 and t=7. The t=7 represents samples stored at either 40° C. or 60° C. for up to 7 days. FIG. 4 follows the change in pH for the buffered naloxone samples as a function of time and temperature of storage. It appears that higher pH instability and higher temperature degradations are concerns for Naloxone formulations. Optimum buffering of Naloxone appears to occur at pH 3-4.6; at the molarity tested.\nFIG. 5 is a graph that depicts pH-stability of Naloxone after 7 days at room temperature by showing Naloxone and Noroxymorphone concentrations in various buffers assayed by HPLC. Temperature and duration of sample storage are at ambient temperature for 7 days.\nFIG. 6 is a graph that depicts pH-stability of Naloxone after 7 days at 40° C. and 75% relative humidity by showing Naloxone and Noroxymorphone concentrations in various buffers assayed by HPLC. Temperature and duration of sample storage are at 40° C. and 75% relative humidity for 7 days. FIG. 6 follows up on the conclusions drawn from the experiment conducted that underlies FIG. 5. Raising the temperature incudes greater formation of Noroxymorphone, and this effect is more pronounced in formulations with a higher pH.\nFIG. 7 is a graph that depicts pH-stability of Naloxone after 7 days at 60° C. by showing Naloxone and Noroxymorphone concentrations in various buffers assayed by HPLC. Temperature and duration of sample storage are at 60° C. and humidity was not maintained for 7 days. At even higher temperatures, Noroxymorphone was detected in all formulations across all respective pHs.\nBuffers used in intramuscular formulations range from 1-100 mM, but lower molar strengths are known to cause less myotoxicity resulting in less “pain” at the site of injection (Napaporn et al., Pharm. Dev. Technol. 5(1): 123-30 (2000). For the purpose of these initial pH stability experiment, a buffer strength of 10 mM was chosen. Buffers tested ranged from pH 3.0-10.6. Intramuscular formulations below pH 3.0 are extremely rare, owing to excessive acidity which can cause a burning sensation. Table 1 lists the various buffer systems used for this study.\nBuffers were created and mixed to a concentration of 10 mM with the pH stabilized. […] Buffers tested ranged from pH 3.0-10.6. Intramuscular formulations below pH 3.0 are rare due to discomfort associated with the injection site."}, "[2]": {"test": "pH-stability with and without buffering agents under nitrogen gas overlay / excipient compatibility study", "format": "physicochemical", "protocol": "FIG. 16 is a graph showing pH fluctuations in samples under nitrogen gas overlay, specifically change in pH of Naloxone solutions in water and buffers at pH 3.0 and 4.6 on Day 0 and Day 7. The Day 7 represents samples stored at either room temperature, 40° C. and 75% relative humidity or 60° C. or 25° C. and 60% relative humidity (in amber vials) for up to 7 days.\nSamples prepared for pH-Stability of naloxone with and without buffering agents (citrate and acetate at pH 3.0 and pH 4.6 respectively) under nitrogen gas overlay were left at 40° C.±2° C./75%±5% relative humidity (RH) and at 60° C. for a total of 5 weeks for this excipient compatibility study. A stability storage chamber was used for 40° C.±2° C./75%±5% while a regular oven was used for the 60° C. samples. Briefly, naloxone samples were prepared in 20 ml of water for injection or freshly prepared 10 mM citrate buffer and/or acetate buffer in 25 ml volumetric flask. […] The pH of the naloxone solutions was adjusted to 3.0 and 4.6 with 0.1N HCl solution. Samples were diluted up to the 25 ml mark with water for injection or citrate buffer pH 3.0 or acetate buffer pH 4.6. These naloxone solutions were filtered using 0.22 μm, 13 mm, PVDF (Pall scientific) syringe filters and pH of the filtrate was measured. The filtered solution was aliquoted into 2.0 ml clear, sterile, Type-I glass vials and closed with 13 mm red rubber closures crimped with aluminum blue flip cap seals. All vials were overlaid with nitrogen gas (filtered with 0.22u PTFE, Acro®50 Vent In-Line filter, Pall scientific) before sealing and stored at 40° C.±2° C./75%±5% relative humidity (RH) or 60° C. for 5 weeks. These samples were evaluated for pH, assay and impurities of naloxone at intervals of T=0, 1 week and T=5 weeks. […] These samples were analyzed at T=2 weeks and T=5 weeks for pH, assay and impurities for naloxone. […]\nThe pH and assay of naloxone for excipient compatibility samples stored at 40° C.±2° C./75%±5% RH and 60° C. on T=0-day, 1 week and T=5 weeks were evaluated."}, "physchem": {"test": "physchem", "settings": "thermodynamic from solid"}}, "data": [{"smiles": "C=CCN1CC[C@]23c4c5ccc(O)c4O[C@H]2C(=O)CC[C@@]3(O)[C@H]1C5.Cl", "note": "[Naloxone hydrochloride, (−)-17-Allyl-4, 5 α-epoxy-3,14-dihydroxymorphinan-6-one hydrochloride]", "values": [{"measurement": "dissolution at 15 mg/ml in buffer", "setting": "[1]; 10 mM buffer systems at pH 7.4 (sodium phosphate monobasic/dibasic) and pH 10.6 (carbonate-bicarbonate)", "result": "did not dissolve efficiently"}, {"measurement": "pH of optimum buffering", "setting": "[1]; 10 mM buffers, up to 7 days at 40° C. or 60° C.", "result": "3-4.6"}, {"measurement": "Noroxymorphone detected by HPLC", "setting": "[1]; 7 days at ambient temperature, pH 7.4 sodium phosphate and pH 10 glycine buffer versus pH lower than 6.5", "result": "Greater amounts of Noroxymorphone were detected"}, {"measurement": "Noroxymorphone formation by HPLC", "setting": "[1]; citrate buffer at pH 3, 7 days at 60° C.", "result": "significantly less Noroxymorphone formation than all of the other formulations tested"}, {"measurement": "precipitation in solution", "setting": "[1]; solution maintained at pH 7.4-10.6", "result": "precipitated"}, {"measurement": "change in pH", "setting": "[2]; 10 mM citrate and acetate buffers at pH 3.0 and 4.6, nitrogen overlay, seven days at room temperature, 40° C./75% RH, 60° C., 25° C./60% RH (amber vials)", "result": "no change in pH"}, {"measurement": "change in pH", "setting": "[2]; without buffers at pH 3.0, nitrogen overlay, seven days at room temperature, 40° C./75% RH, 60° C., 25° C./60% RH (amber vials)", "result": "no change in pH"}, {"measurement": "change in pH", "setting": "[2]; without buffers at pH 4.6, nitrogen overlay, seven days", "result": "increased"}, {"measurement": "solubility", "setting": "physchem; pH 5, aqueous buffer", "result": 204, "unit": "mg/mL"}, {"measurement": "solubility", "setting": "physchem; pH 10, aqueous buffer", "result": 90.5, "unit": "mg/mL"}]}]}
